Our source for the IC50 values is patent US9296745B2, “Diacylglycerol acyltransferase 2 inhibitors” (Pfizer Inc., priority 2012, dated 2016).

What is called pIC50 is the negative decadic logarithm of the IC50, by convention in mol/L.

pIC50: −log10 of the molar value.

Chain of Human DGAT2 (hDGAT2) (Q96PD7 whole entry): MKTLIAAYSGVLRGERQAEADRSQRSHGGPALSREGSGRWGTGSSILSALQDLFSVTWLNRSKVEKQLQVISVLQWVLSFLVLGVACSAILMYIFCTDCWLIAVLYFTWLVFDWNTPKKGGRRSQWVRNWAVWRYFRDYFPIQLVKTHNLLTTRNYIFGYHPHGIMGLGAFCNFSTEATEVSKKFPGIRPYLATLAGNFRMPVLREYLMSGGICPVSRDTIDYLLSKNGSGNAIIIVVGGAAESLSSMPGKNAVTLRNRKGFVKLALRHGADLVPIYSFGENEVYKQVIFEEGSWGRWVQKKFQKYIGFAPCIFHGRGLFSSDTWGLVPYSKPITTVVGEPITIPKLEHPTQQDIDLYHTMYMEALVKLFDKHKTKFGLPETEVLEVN

The target of the assay is Human DGAT2 (hDGAT2) (Homo sapiens (Human), UniProt Q96PD7). Nature of the assay: In vitro DGAT2 assay, IC50 determination with hDGAT2 membrane fraction. It is filed as biochemical. As to conditions: geometric mean; background for complete inhibition of DGAT2 obtained with 50 μM (1R,2R)-2-({3′-Fluoro-4′-[(6-fluoro-1,3-benzothiazol-2-yl)amino]-1,1′-biphenyl-4-yl}carbonyl)cyclopentanecarboxylic acid; read-out: DGAT2 IC50. An outline of the steps:
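CHAPS-solubilized membrane fraction of FLAG-tagged hDGAT2 from baculovirus-infected SF9 cells (0.01 mg/mL) in 100 mM Hepes-NaOH pH 7.4, 20 mM MgCl2, 200 nM methyl arachidonyl fluorophosphonate; compounds pre-incubated 20 min with 0.04% BSA. Reaction 40 min at room temperature, stopped with H3PO4. [^14C]tridecanoylglycerol in organic phase counted; 11-point geometric mean IC50.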
Take `O=C([C@@H]1CCCN(c2ccc3nc(-c4cccc(N5CCC5)n4)[nH]c3n2)C1)N1CCCC1` [Example 120, (R)-(1-(2-(6-(Azetidin-1-yl)pyridin-2-yl)-3H-imidazo[4,5-b]pyridin-5-yl)piperidin-3-yl)(pyrrolidin-1-yl)methanone]: the pIC50 was 7.67.
Then `O=C([C@@H]1CCCN(c2ccc3nc(-c4cccc(OC(F)F)n4)[nH]c3n2)C1)N1CCCC1` [Example 121, (R)-(1-(2-(6-(Difluoromethoxy)pyridin-2-yl)-3H-imidazo[4,5-b]pyridin-5-yl)piperidin-3-yl)(pyrrolidin-1-yl)methanone], with 7.84.
Consider `O=C([C@@H]1CCCN(c2ccc3nc(-c4cccc(C(F)F)n4)[nH]c3n2)C1)N1CCCC1` [Example 122, (R)-(1-(2-(6-(Difluoromethyl)pyridin-2-yl)-3H-imidazo[4,5-b]pyridin-5-yl)piperidin-3-yl)(pyrrolidin-1-yl)methanone], for which the pIC50 is 7.96.
For `COC(=O)c1cccc(-c2nc3ccc(N4CCC[C@@H](C(=O)N5CCCC5)C4)nc3[nH]2)n1` [Example 123, (R)-Methyl 6-(5-(3-(pyrrolidine-1-carbonyl)piperidin-1-yl)-1H-imidazo[4,5-b]pyridin-2-yl)picolinate], the pIC50 was 6.56.
To `CCOC(=O)C1(c2cccc(-c3nc4ccc(N5CCC[C@@H](C(=O)N6CCCC6)C5)nc4[nH]3)c2)CC1` [Example 124, (R)-Ethyl 1-(3-(5-(3-(pyrrolidine-1-carbonyl)piperidin-1-yl)-3H-imidazo[4,5-b]pyridin-2-yl)phenyl)cyclopropanecarboxylate] belongs 8.28.
To `COC(=O)c1cccc(-c2nc3ccc(N4CCC[C@@H](C(=O)N5CCCC5)C4)nc3[nH]2)c1` [Example 125, (R)-Methyl 3-(5-(3-(pyrrolidine-1-carbonyl)piperidin-1-yl)-3H-imidazo[4,5-b]pyridin-2-yl)benzoate] belongs 7.27.
Regarding `COc1cc(C(=O)O)cc(-c2nc3ccc(N4CCC[C@@H](C(=O)N5CCCC5)C4)nc3[nH]2)n1` [Example 126, (R)-2-Methoxy-6-(5-(3-(pyrrolidine-1-carbonyl)piperidin-1-yl)-3H-imidazo[4,5-b]pyridin-2-yl)isonicotinic acid], the pIC50 is 5.46.
To `CS(=O)(=O)c1cccc(-c2nc3ccc(N4CCC[C@@H](C(=O)N5CCCC5)C4)nc3[nH]2)c1` [Example 127, (R)-(1-(2-(3-(Methylsulfonyl)phenyl)-3H-imidazo[4,5-b]pyridin-5-yl)piperidin-3-yl)(pyrrolidin-1-yl)methanone] belongs 6.63; to `CCOC(=O)CCc1cccc(-c2nc3ccc(N4CCC[C@@H](C(=O)N5CCCC5)C4)nc3[nH]2)c1` [Example 128, (R)-Ethyl 3-(3-(5-(3-(pyrrolidine-1-carbonyl)piperidin-1-yl)-3H-imidazo[4,5-b]pyridin-2-yl)phenyl)propanoate], 8.15.
Then `CCN(CC)C(=O)c1nc2ccc(N3CCC[C@@H](C(=O)N4CCCC4)C3)nc2[nH]1` [Example 129, (R)—N,N-Diethyl-5-(3-(pyrrolidine-1-carbonyl)piperidin-1-yl)-3H-imidazo[4,5-b]pyridine-2-carboxamide], with 5.34; and `O=C(Nc1ccccn1)c1nc2ccc(N3CCC[C@@H](C(=O)N4CCCC4)C3)nc2[nH]1` [Example 130, (R)—N-(Pyridin-2-yl)-5-(3-(pyrrolidine-1-carbonyl)piperidin-1-yl)-3H-imidazo[4,5-b]pyridine-2-carboxamide], with 5.72; and `O=C([C@@H]1CCCN(c2ccc3nc(-c4ccnc(C5CC5)n4)[nH]c3n2)C1)N1CCC(F)(F)C1` [Example 131, (R)-(1-(2-(2-Cyclopropylpyrimidin-4-yl)-3H-imidazo[4,5-b]pyridin-5-yl)piperidin-3-yl)(3,3-difluoropyrrolidin-1-yl)methanone], with 7.46.
